Here are results for 15 compounds from patent US20220127247A1, “N-(PYRIDIN-2-YL)PYRIDINE-SULFONAMIDE DERIVATIVES AND THEIR USE IN THE TREATMENT OF DISEASE” (NOVARTIS AG, priority 2019, published 2022).

Molecules are shown by their SMILES. pEC50: −log10 of the molar value.

The target in test [1] is T1, delF508-CFTR (Homo sapiens, UniProt P13569, DEL508-508).
T1 construct: expressed in transfected cells
Briefly: delF508-CFTR functional activity in primary human bronchial epithelial cells (HBECs), Multi-Transepithelial Clamp Circuit (MTECC-24) assay. Format: cell-based. The conditions noted are these: for pEC50: primary human delF508-CFTR bronchial epithelial cells, 24 h with compound, equivalent short circuit current (Ieq), forskolin plus potentiator, mean of at least two replicates, read-out: MTECC24-CFHBEC EC50; for MTECC24-CFHBEC Amax %: test compound added 24 h before assay, with potentiator (S)-3-amino-6-methoxy-N-(3,3,3-trifluoro-2-hydroxy-2-methylpropyl)-5-(trifluoromethyl)picolinamide, relative to 2 μM 3-(6-(1-(2,2-difluorobenzo[d][1,3]dioxol-5-yl)cyclopropane-1-carboxamido)-3-methylpyridin-2-yl)benzoic acid + 0.5 μM N-(2,4-di-tert-butyl-5-hydroxyphenyl)-4-oxo-1,4-dihydroquinoline-3-carboxamide. From the text: Measurement of delF508-CFTR Functional Activity in Primary Human Bronchial Epithelial Cells (HBECs) Using Multi-Transepithelial Clamp Circuit (MTECC-24) Assay
This assay measures the functional activity of the CFTR channel (Chloride ion transport) in patient derived primary human bronchial epithelial cells with forskolin activation and in the presence of the CFTR corrector/potentiator combination.
Primary human delF508-CFTR bronchial epithelial cells were and cultured according to previously established methods (Neuberger, T. et, al., Methods in Molecular Biology, 2011, 741, pp 39-54). Briefly, before thawing the HBEC cells, T25 flasks were coated with 2 mL of 3T3 conditioned media (MTI-GlobalStem, Cat #GSM9100) for at least 12 hours in 37° C. CO2 incubator. 1.7×10^5 cells were seeded into one T25 flask with 5 mL of HBE growth media (BEBM with supplements (Lonza, Cat #CC-3170) with 10 nM of retinoic acid (Sigma, Cat #R-2625) and 1% of PSA (Hyclone, Cat #SV30079.01). Media was changed every day till the cells were 100% confluent. Cells were seeded into T75 flasks (pre-coated with 5 mL of 3T3 conditioned media for more than 12 hrs) at 4.95×10^5 cells/T75 flask in 15 mL of HBE growth media. Flasks were fed everyday with fresh HBE growth media until the cells were confluent. 24-well transwell plates (Corning, Cat #3378) were coated with 3T3 conditioned media (70 μL on top of the filter, 350 μL to the bottom of the well) overnight in the 37° C. CO2 incubator. Cells were seeded in the pre-coated 24-well transwell plates at 1.7×10^5 cell/well with 700 μL of growth media at the bottom of the well and 200 μL of growth media at the top of the filter. After 24 hrs, cells were switched into HBE differentiation media ((DMEM/F12 (Gibco, Cat #11330-032) supplement with 2% Ultroser G (Pall, Cat #15950-017), 2% of Fetal Clone II (Hyclone, Cat #SH30066.03), 0.25% Bovine Brain Extract (Lonza, Cat #CC-4098), 1% of PSA, 2.5 μg/mL of Insulin (Sigma, Cat #19278), 20 nM of Hydrocortisone (Sigma, Cat #H0888), 500 nM of Triiodothyronine (Sigma, Cat #T6397), 2.5 μg/mL of Transferrin (Sigma, Cat #T8158), 250 nM of Ethanolamine (Sigma, Cat #E0135), 1.5 μM of Epinephrine (Sigma, Cat #E4250), 250 nM of Phosphoethanolamine (Sigma, Cat #P0503), 10 nM of retinoic acid)) with 200 μL on top of the filter (apical side) and 700 μL at the bottom of the well (basolateral side). Cells were fed every other day with the differentiation media. After 4 days, cells were exposed to air/liquid interface. Then cells were fed every other day for 4 weeks before fully differentiated.
Cells were washed with 3 mM DTT in PBS at 70 ul/well for 30 min at 37° C. 6 days before the assay. 3 days before the assay, cells were washed again with PBS at 70 ul/well for 30 min at 37° C. Then cells were treated with compound for 24 hrs before the assay.
Following 24 hr treatment with compound, cells were transferred into plates containing 750 ul of assay media on basolateral side and 250 ul on apical side (Assay medium: F-12 Coon's modified, 20 mM HEPES pH7.4 with TRIS Base, No FCS or bicarbonate). The plates wee then transferred to the heated plate compartments (basolateral buffer temperature ˜36.5° C. on the heating block) of the TECC24 system for 45 mins prior to measurements.
Modulators were added sequentially as follows while the TECC24 instrument recorded the equivalent short circuit current (Ieq):
Prior to dilution into assay medium the stocks were as follows: • Benzamil stock: 10 mM in DMSO • Forskolin Stock: 50 mM in DMSO • N-(2,4-di-tert-butyl-5-hydroxyphenyl)-1,4-dihydro-4-oxoquinoline-3-carboxamide: 50 mM in DMSO • (S)-3-amino-6-methoxy-N-(3,3,3-trifluoro-2-hydroxy-2-methylpropyl)-5-(trifluoromethyl)picolinamide: 50 mM stock 100% DMSO • Bumetanide stock: 20 mM in EtOH
The data was normalized using the median signal from wells treated with 0.1% DMSO as a baseline. Curve fitting and EC50 calculations were performed using the following equation: […]

Test [2] addresses T1, delF508-CFTR. Description: Measurement of delF508-CFTR-HRP surface expression in CFBE41o- cells. Format: cell-based. The settings on record: for pEC50: HRP-tagged delF508-CFTR in CFBE41o- cells, 24 h with compound, luminescence, 10-point curve, top 10 μM; for Emax: efficacy relative to reference compound 3-(6-(1-(2,2-difluorobenzo[d][1,3]dioxol-5-yl)cyclopropane-1-carboxamido)-3-methylpyridin-2-yl)benzoic acid, CFBE41o- cells, 24 h, read-out: DelF508-CFTR-HRP Amax %. In a few lines: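 CFBE41o- cells stably expressing delF508-CFTR with HRP in the fourth extracellular loop, induced with 500 ng/mL doxycycline for 48 h, then treated with compound (top 10 μM, 10-point 3-fold) for 24 h at 37° C. Surface HRP detected by luminescence with cell-impermeant substrate; EC50 from logistic fit of triplicates, normalized to lowest concentration.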

T1 sequence (P13569 with tags, fused parts or gaps DEL508-508): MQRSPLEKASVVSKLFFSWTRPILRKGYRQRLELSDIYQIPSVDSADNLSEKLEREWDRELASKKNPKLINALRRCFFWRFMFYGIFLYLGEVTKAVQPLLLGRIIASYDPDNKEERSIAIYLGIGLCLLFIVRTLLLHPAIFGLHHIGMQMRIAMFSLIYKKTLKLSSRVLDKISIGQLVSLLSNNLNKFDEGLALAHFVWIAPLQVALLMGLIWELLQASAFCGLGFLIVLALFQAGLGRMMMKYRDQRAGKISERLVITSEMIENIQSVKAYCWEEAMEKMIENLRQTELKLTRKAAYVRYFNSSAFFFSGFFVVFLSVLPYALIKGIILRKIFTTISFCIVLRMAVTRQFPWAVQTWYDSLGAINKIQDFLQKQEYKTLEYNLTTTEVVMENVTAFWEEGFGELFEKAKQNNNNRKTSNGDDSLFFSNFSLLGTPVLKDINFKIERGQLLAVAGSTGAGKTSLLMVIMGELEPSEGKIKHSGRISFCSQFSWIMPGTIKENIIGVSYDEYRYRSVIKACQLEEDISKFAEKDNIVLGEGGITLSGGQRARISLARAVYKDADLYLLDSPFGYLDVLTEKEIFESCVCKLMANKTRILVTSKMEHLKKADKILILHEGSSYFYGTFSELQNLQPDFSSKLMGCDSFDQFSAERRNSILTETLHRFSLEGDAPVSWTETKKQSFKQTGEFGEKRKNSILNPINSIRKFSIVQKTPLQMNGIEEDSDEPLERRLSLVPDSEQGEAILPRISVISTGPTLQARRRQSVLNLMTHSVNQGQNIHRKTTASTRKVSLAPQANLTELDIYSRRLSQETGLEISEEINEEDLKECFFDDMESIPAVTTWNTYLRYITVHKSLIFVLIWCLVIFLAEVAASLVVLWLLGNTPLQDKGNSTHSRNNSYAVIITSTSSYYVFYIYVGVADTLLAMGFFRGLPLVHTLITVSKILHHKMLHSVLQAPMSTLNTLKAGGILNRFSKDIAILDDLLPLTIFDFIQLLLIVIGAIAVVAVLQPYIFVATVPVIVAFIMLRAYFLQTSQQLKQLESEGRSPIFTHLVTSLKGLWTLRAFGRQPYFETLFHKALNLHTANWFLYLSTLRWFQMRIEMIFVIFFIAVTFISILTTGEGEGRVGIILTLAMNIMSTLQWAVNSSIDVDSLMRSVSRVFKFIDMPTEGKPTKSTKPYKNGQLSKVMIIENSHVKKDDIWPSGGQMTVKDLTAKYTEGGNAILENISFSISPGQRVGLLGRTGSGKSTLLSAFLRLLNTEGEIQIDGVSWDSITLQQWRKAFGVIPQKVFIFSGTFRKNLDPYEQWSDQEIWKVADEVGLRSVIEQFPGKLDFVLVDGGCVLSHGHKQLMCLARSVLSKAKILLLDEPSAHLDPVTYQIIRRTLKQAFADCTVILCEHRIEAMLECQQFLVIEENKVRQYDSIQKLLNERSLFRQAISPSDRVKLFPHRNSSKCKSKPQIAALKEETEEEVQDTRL

Consider `CCCN(CCCC(=O)O)c1cccc(S(=O)(=O)Nc2ccc(Cl)c(-c3c(C)cccc3C)n2)n1` [Compound 157, 4-((6-(N-(5-chloro-6-(2,6-dimethylphenyl)pyridin-2-yl)sulfamoyl)pyridin-2-yl)(propyl)amino)butanoic Acid], for which, on delF508-CFTR [1], the negative logarithm of the EC50 (pEC50) was 6.23 and the “MTECC24-CFHBEC Amax %” value is on record as 59%. At delF508-CFTR [2], the pEC50 is 6.11 and the Emax was 589%.

In the case of `Cc1ccccc1-c1nc(NS(=O)(=O)c2cccc(N(CCCC(=O)O)C(C)C)n2)ccc1C(F)(F)F` [Compound 94, 4-(isopropyl(6-(N-(6-(o-tolyl)-5-(trifluoromethyl)pyridin-2-yl)sulfamoyl)pyridin-2-yl)amino)butanoic acid], on delF508-CFTR [1], the pEC50 was 7.59 and the “MTECC24-CFHBEC Amax %” value is on record as 208%. Also, the pEC50 at delF508-CFTR [2] was 5.86.

As for `CCCN(CCC(=O)O)c1cccc(S(=O)(=O)Nc2ccc(C(F)(F)F)c(-c3cc(F)ccc3C)n2)n1` [Compound 149, 3-((6-(N-(6-(5-fluoro-2-methylphenyl)-5-(trifluoromethyl)pyridin-2-yl)sulfamoyl)pyridin-2-yl)(propyl)amino)propanoic Acid], on delF508-CFTR [1], the pEC50 is 7.06 and the “MTECC24-CFHBEC Amax %” value was 133%. In addition, at delF508-CFTR [2], the pEC50 was 5.83.

Take `Cc1ccccc1-c1nc(NS(=O)(=O)c2cccc(N(CCC(=O)O)CC3CC3)n2)ccc1C(F)(F)F` [Compound 86, 3-((cyclopropylmethyl)(6-(N-(6-(o-tolyl)-5-(trifluoromethyl)pyridin-2-yl)sulfamoyl)pyridin-2-yl)amino)propanoic Acid]: at delF508-CFTR [1], the pEC50 is 7.21 and the “MTECC24-CFHBEC Amax %” value is given as 253%. Moreover, the negative logarithm of the EC50 (pEC50) at delF508-CFTR [2] was 5.86.

As to `CCc1ccc(F)cc1-c1nc(NS(=O)(=O)c2cccc(N(CC)CCCC(=O)O)n2)ccc1C(F)(F)F` [Compound 110, 4-(ethyl(6-(N-(6-(2-ethyl-5-fluorophenyl)-5-(trifluoromethyl)pyridin-2-yl)sulfamoyl)pyridin-2-yl)amino)butanoic Acid], on delF508-CFTR [1], the pEC50 is 8.22 and the “MTECC24-CFHBEC Amax %” value is reported as 182%. Besides, at delF508-CFTR [2], the pEC50 is 5.99.

As for `CCCCN(CCCC(=O)O)c1cccc(S(=O)(=O)Nc2ccc(C(F)(F)F)c(-c3ccccc3C)n2)n1` [Compound 87, 4-(butyl(6-(N-(6-(o-tolyl)-5-(trifluoromethyl)pyridin-2-yl)sulfamoyl)pyridin-2-yl)amino)butanoic Acid], on delF508-CFTR [1], the pEC50 was 6.98 and the “MTECC24-CFHBEC Amax %” value turned out to be 269%. Moreover, the pEC50 at delF508-CFTR [2] is 5.86.

As to `CCCN(CCC(=O)O)c1cccc(S(=O)(=O)Nc2ccc(C(F)(F)F)c(-c3ccccc3C)n2)n1` [Compound 148, 3-(propyl(6-(N-(6-(o-tolyl)-5-(trifluoromethyl)pyridin-2-yl)sulfamoyl)pyridin-2-yl)amino)propanoic Acid], on delF508-CFTR [1], the negative logarithm of the EC50 (pEC50) is 6.75 and the “MTECC24-CFHBEC Amax %” value is on record as 247%. Also, the pEC50 on delF508-CFTR [2] was 5.84.

Consider `Cc1ccccc1-c1nc(NS(=O)(=O)c2cccc(N(C)CCCCC(=O)O)n2)ccc1C(F)(F)F` [Compound 66, 5-(methyl(6-(N-(6-(o-tolyl)-5-(trifluoromethyl)pyridin-2-yl)sulfamoyl)pyridin-2-yl)amino)pentanoic Acid], for which the pEC50 at delF508-CFTR [1] is 6.73; at delF508-CFTR [2], 5.80. The “MTECC24-CFHBEC Amax %” value at delF508-CFTR [1] came to 133%.

As to `Cc1ccccc1-c1nc(NS(=O)(=O)c2cccc(N(CCCC(=O)O)CC3CC3)n2)ccc1C(F)(F)F` [Compound 103, 4-((cyclopropylmethyl)(6-(N-(6-(o-tolyl)-5-(trifluoromethyl)pyridin-2-yl)sulfamoyl)pyridin-2-yl)amino)butanoic Acid], the negative-log EC50 (pEC50) was 7.14 on delF508-CFTR [1] and 5.84 on delF508-CFTR [2]. In addition, the “MTECC24-CFHBEC Amax %” value at delF508-CFTR [1] amounted to 142%.

For the compound `Cc1ccccc1-c1nc(NS(=O)(=O)c2cccc(N3CCC[C@@H](CC(=O)O)C3)n2)ccc1C(F)(F)F` [Compound 60, (S)-2-(1-(6-(N-(6-(o-tolyl)-5-(trifluoromethyl)pyridin-2-yl)sulfamoyl)pyridin-2-yl)piperidin-3-yl)acetic Acid], on delF508-CFTR [1], the pEC50 is 7.19 and the “MTECC24-CFHBEC Amax %” value is 128%. In addition, at delF508-CFTR [2], the pEC50 was 5.72 and the Emax worked out at 997%.

As for `CCCN(CCCC(=O)O)c1cccc(S(=O)(=O)Nc2ccc(C(F)(F)F)c(-c3ccccc3C)n2)n1` [Compound 132, 4-(propyl(6-(N-(6-(o-tolyl)-5-(trifluoromethyl)pyridin-2-yl)sulfamoyl)pyridin-2-yl)amino)butanoic Acid], on delF508-CFTR [1], the pEC50 is 7.02 and the “MTECC24-CFHBEC Amax %” value turned out to be 232%. Also, the pEC50 at delF508-CFTR [2] was 5.80.

`Cc1ccccc1-c1nc(NS(=O)(=O)c2cccc(N3CCC[C@@H](CCC(=O)O)C3)n2)ccc1C(F)(F)F` (single isomer, unassigned) [Compound 63]: on delF508-CFTR [1], the pEC50 was 7.77 and the “MTECC24-CFHBEC Amax %” value came out at 149%. Also, the pEC50 on delF508-CFTR [2] is 5.84.

Take `CCN(CCC(=O)O)c1cccc(S(=O)(=O)Nc2ccc(C(F)(F)F)c(-c3ccccc3C3CC3)n2)n1` [Compound 80, 3-((6-(N-(6-(2-cyclopropylphenyl)-5-(trifluoromethyl)pyridin-2-yl)sulfamoyl)pyridin-2-yl)(ethyl)amino)propanoic Acid]: the pEC50 at delF508-CFTR [1] is 6.98; on delF508-CFTR [2], 5.71. The “MTECC24-CFHBEC Amax %” value at delF508-CFTR [1] is recorded as 95%.

Turning to `Cc1ccccc1-c1nc(NS(=O)(=O)c2cccc(N3CCC[C@H](CCC(=O)O)C3)n2)ccc1C(F)(F)F` (single isomer, unassigned) [Compound 62], the values for the pEC50 at delF508-CFTR [1] and at delF508-CFTR [2] were 8.05 and 5.91, respectively. In addition, the “MTECC24-CFHBEC Amax %” value at delF508-CFTR [1] is reported as 150%.

Take `CCc1ccccc1-c1nc(NS(=O)(=O)c2cccc(N(CC)CCCC(=O)O)n2)ccc1C(F)(F)F` [Compound 97, 4-(ethyl(6-(N-(6-(2-ethylphenyl)-5-(trifluoromethyl)pyridin-2-yl)sulfamoyl)pyridin-2-yl)amino)butanoic Acid]: at delF508-CFTR [1], the pEC50 was 8.40 and the “MTECC24-CFHBEC Amax %” value is given as 190%. The pEC50 at delF508-CFTR [2] is 5.87.
